Data from patent US20240018146A1, “COMPOSITIONS AND METHODS OF USING THE SAME FOR TREATMENT OF NEURODEGENERATIVE AND MITOCHONDRIAL DISEASE” (MITOKININ, INC., priority 2020, published 2024).
pEC50: −log10 of the molar value. Read-outs that look alike come from different tables or passages of the source.

Experiments:
HeLa MKYP cells [1] = assay: Human mitophagy assay (HeLa mKeima assay, FACS); assay type: cell-based; conditions: read-out: Mitophagy induction EC50
Procedure: Briefly, HeLa MKYP cells were plated at 10,000 cells/well in 96 well plates along with compounds at various concentrations. Following 16 hrs of incubation, cells were treated with 1 uM FCCP/oligomycin for 6 hours, then analyzed via FACS for the presence of mitochondria in lysosomes (as determined by an emissions spectrum shift from the pH-sensitive mtKeima tag).
Briefly, HeLa cells expressing a mitophagy indicator (mtKeima) protein were treated with […] of FCCP and Oligomycin followed by the specified dose of compound, then analyzed by FACS to quantify the percentage of cells undergoing mitophagy.

HeLa MKYP cells [2] = assay: Cell death measured by DAPI staining, with 1 μM FCCP/oligomycin or no toxin (no FO); assay type: cell-based
Procedure: EP-0035985, EP-0037821, EP-0038098, and EP-0038099 in the presence of 1 μM FCCP/oligomycin or with no toxin (no FO) for 6 hrs. H2O2 treatment was performed as a control for cell death as measured by DAPI staining.
EP-0035985, EP-0038461, EP-0038463, and EP-0038503 in the presence of 1 μM FCCP/oligomycin or with no toxin (no FO) for 6.5 hrs. H2O2 treatment was performed as a control for cell death as measured by DAPI staining.
EP-0035985, EP-0038504, EP-0038508, and EP-0038521 in the presence of 1 μM FCCP/oligomycin or with no toxin (no FO) for 6.5 hrs. H2O2 treatment was performed as a control for cell death as measured by DAPI staining.
EP-0035985, EP-0038461, EP-0038463, EP-0038503, EP-0038504, EP-0038508, and EP-0038521 in the presence of 1 μM FCCP/oligomycin or with no toxin (no FO) for 6.5 hrs. H2O2 treatment was performed as a control for cell death as measured by DAPI staining.

Row | Structure (SMILES) | pEC50 (HeLa MKYP cells [1]; Homo sapiens, HeLa) | Highest safe dose (cytotoxicity; no FO; safe means DAPI+ <20%) (HeLa MKYP cells [2]) [µM] | Max % death with 1 μM FO (HeLa MKYP cells [2]) [%] | pEC50 (HeLa MKYP cells [1])
1 | Cc1ccc2c(c1)OC[C@H](N1CCOCC1)[C@H]2Nc1ncnc2[nH]c(C(F)(F)F)cc12 (racemic) [EP-0041045] | 5.81 | 25.0 | 7.7 | 
2 | FC(F)(F)c1cc2c(N[C@H]3c4ccccc4CC[C@H]3OC3CCOCC3)ncnc2[nH]1 (single isomer, unassigned) [EP-0039733] | 5.03 | 25.0 | 3.1 | 
3 | C[C@@H]1CN([C@H]2COc3ccccc3[C@@H]2Nc2ncnc3[nH]c(C4CC4)cc23)CCO1 [EP-0040957] | 4.64 | 25.0 | 3.8 | 
4 | FC1COCCC1[C@H]1COc2ccccc2[C@@H]1Nc1ncnc2[nH]c(C(F)(F)F)cc12 (single isomer, unassigned) [EP-0041324] |  | 25.0 | 10.4 | 4.91
5 | FC(F)(F)c1cc2c(N[C@H]3c4ccccc4CC[C@@H]3N3CCCOCC3)ncnc2[nH]1 [EP-0040139] | 5.44 | 25.0 | 8.5 | 
6 | C[C@@H]1CN([C@@H]2CCc3ccccc3[C@H]2Nc2ncnc3[nH]c(C4CC4)cc23)C[C@H](C)O1 (single isomer, unassigned) [EP-0040499] | 5.28 | 25.0 | 4.3 | 
7 | C[C@@H]1CN([C@@H]2CCc3ccccc3[C@H]2Nc2ncnc3[nH]c(C(F)(F)F)cc23)CCO1 (single isomer, unassigned) [EP-0040492] | < 4.60 | 25.0 | 1.8 | 
8 | C[C@H]1CN([C@@H]2CCc3ccccc3[C@H]2Nc2ncnc3[nH]c(C(F)(F)F)cc23)CCO1 (single isomer, unassigned) [EP-0040504] | 5.03 | 25.0 | 2.0 | 
9 | FC(F)(F)c1cc2c(N[C@H]3c4ccccc4OC[C@@H]3C3CCCOC3)ncnc2[nH]1 (single isomer, unassigned) [EP-0041002] | 5.21 | 25.0 | 4.5 | 
10 | OC(C1CCOCC1)C1COc2ccccc2C1Nc1ncnc2[nH]c(C(F)(F)F)cc12 (single isomer, unassigned) [EP-0041270] |  | 25.0 | 11.6 | 6.07
11 | C[C@@H]1CN([C@@H]2CCc3ccccc3[C@H]2Nc2ncnc3[nH]c(C4CC4)cc23)CCO1 (single isomer, unassigned) [EP-0040497] | 5.16 | 25.0 | 4.3 | 
12 | C[C@@H]1CN([C@@H]2COc3cc(F)ccc3[C@H]2Nc2ncnc3[nH]c(C4CC4)cc23)CCO1 [EP-0041123] | 4.96 | 25.0 | 7.3 | 
13 | OC[C@@H]1CN([C@H]2COc3ccccc3[C@@H]2Nc2ncnc3[nH]c(C(F)(F)F)cc23)CCO1 (single isomer, unassigned) [EP-0041586] |  | 25.0 | 10.7 | 5.02
14 | c1ccc2c(c1)CC[C@@H](N1C[C@H]3COC[C@@H]3C1)[C@@H]2Nc1ncnc2[nH]c(C3CC3)cc12 [EP-0040767] | < 4.60 | 25.0 | 7.9 | 
15 | FC(F)(F)c1cc2c(NC3c4ccccc4CCC3N3CCC4(CCOC4)CC3)ncnc2[nH]1 (stereo not drawn) [EP-0040589] | < 4.60 | 25.0 | 19.4 | 
16 | C[C@@]12COC[C@]1(C)CN(C1CCc3ccccc3C1Nc1ncnc3[nH]c(C4CC4)cc13)C2 (stereo partly drawn) [EP-0040542] | 5.84 | 25.0 | 15.3 | 
17 | c1ccc2c(c1)OC[C@H](N1C[C@H]3COC[C@H]3C1)[C@H]2Nc1ncnc2[nH]c(C3CC3)cc12 (single isomer, unassigned) [EP-0040391] | < 4.60 | 25.0 | 3.9 | 
18 | Fc1ccc2c(c1)OC[C@@H](N1CCOCC1)[C@@H]2Nc1ncnc2[nH]c(C3CC3)cc12 (single isomer, unassigned) [EP-0040501] | 4.85 | 25.0 | 5.0 | 

Row | Structure (SMILES) | pEC50 (HeLa MKYP cells [1]; Homo sapiens, HeLa) | Highest safe dose (cytotoxicity; no FO; safe means DAPI+ <20%) (HeLa MKYP cells [2]) [µM] | Max % death with 1 μM FO (HeLa MKYP cells [2]) [%] | pEC50 (HeLa MKYP cells [1])
19 | c1ccc2c(c1)OC[C@H](C1CCOCC1)[C@@H]2Nc1ncnc2[nH]c(C3CC3)cc12 [EP-0040731] | < 4.60 | 25.0 | 2.7 | 
20 | COC(C)(C)C1CN([C@H]2COc3ccccc3[C@@H]2Nc2ncnc3[nH]c(C(F)(F)F)cc23)C1 [EP-0041480] | 5.57 | 25.0 | 4.6 | 
21 | C[C@@H]1COCCN1[C@@H]1CCc2ccccc2[C@H]1Nc1ncnc2[nH]c(C(F)(F)F)cc12 (single isomer, unassigned) [EP-0040195] | 4.73 | 25.0 | 12.0 | 
22 | OC[C@@H]1CCCN1[C@H]1CCc2ccccc2[C@@H]1Nc1ncnc2[nH]c(C(F)(F)F)cc12 (single isomer, unassigned) [EP-0039732] | < 4.60 | 25.0 | 6.2 | 
23 | CO[C@H]1CCN([C@@H]2COc3ccccc3[C@H]2Nc2ncnc3[nH]c(C4CC4)cc23)C1 [EP-0041518] | < 4.60 | 25.0 | 7.4 | 
24 | Fc1ccc2c(c1)OC[C@H](N1C[C@@H]3COC[C@H]3C1)[C@H]2Nc1ncnc2[nH]c(C3CC3)cc12 (single isomer, unassigned) [EP-0040873] |  | 25.0 | 4.3 | < 4.60
25 | FC(F)(F)c1cc2c(N[C@H]3c4ccccc4C[C@@H]3N3C[C@H]4COC[C@H]4C3)ncnc2[nH]1 [EP-0039754] | < 4.60 | 25.0 | 17.7 | 
26 | [O-][S+]1CCN(C2CCc3ccccc3C2Nc2ncnc3[nH]c(C4CC4)cc23)CC1 (stereo not drawn) [EP-0040665] | 5.01 | 25.0 | 3.7 | 
27 | FC(F)(F)c1cc2c(N[C@H]3c4ccccc4OC[C@@H]3N3CCC4(COC4)C3)ncnc2[nH]1 (single isomer, unassigned) [EP-0041516] | 5.49 | 25.0 | 11.8 | 
28 | Fc1ccc2c(c1)OC[C@H](N1CCOCC1)[C@H]2Nc1ncnc2[nH]c(C3CC3)cc12 [EP-0040500] | 6.00 | 25.0 | 8.6 | 
29 | c1ccc2c(c1)OC[C@H](C1CCOCC1)[C@H]2Nc1ncnc2[nH]c(C3CC3)cc12 [EP-0040728] | 5.03 | 25.0 | 3.7 | 
30 | OC(C1CCOCC1)C1COc2ccccc2C1Nc1ncnc2[nH]c(C(F)(F)F)cc12 (single isomer, unassigned) [EP-0041269] |  | 25.0 | 2.9 | < 4.60
31 | c1ccc2c(c1)CC[C@@H](C1CCOCC1)[C@H]2Nc1ncnc2[nH]c(C3CC3)cc12 [EP-0040626] | 5.15 | 25.0 | 29.3 | 
32 | Fc1ccc2c(c1)OC[C@H](N1C[C@H]3COC[C@@H]3C1)[C@H]2Nc1ncnc2[nH]c(C(F)(F)F)cc12 (single isomer, unassigned) [EP-0040747] |  | 25.0 | 5.8 | < 4.60
33 | N#Cc1cn([C@@H]2CCc3ccccc3[C@@H]2Nc2ncnc3[nH]c(C(F)(F)F)cc23)cn1 [EP-0039748] | 5.09 | 25.0 | 6.5 | 
34 | Fc1ccc2c(c1)OC[C@H](N1C[C@@H]3COC[C@H]3C1)[C@H]2Nc1ncnc2[nH]c(C(F)(F)F)cc12 (single isomer, unassigned) [EP-0040562] | 5.82 | 25.0 | 7.9 | 
35 | FC(F)(F)c1cc2c(NC3c4ccccc4OCC3N3CCC4(CCOC4)CC3)ncnc2[nH]1 (stereo not drawn) [EP-0040545] | < 4.60 | 25.0 | 3.7 | 
